Laboratory results taken from patent US20260355196A1, “INHIBITORS AND DEGRADERS OF PIP4K PROTEIN” (Larkspur Biosciences, Inc., priority 2023, published 2026).

The molecules below were run against T1, PIP4K2C (Homo sapiens, UniProt Q8TBX8) (assay: HiBiT PIP4K2C degradation assay in MOLT-4 cells (endogenous PIP4K2C C-terminally tagged with HiBiT)). Details: 6 hours of incubation time, rather than 24 hours; MOLT-4, top concentration 10 micromolar; read-out: HiBIT-degradation MOLT4 PIP4k2C DC50 (6 hours, marked *).
T1 sequence (Q8TBX8 1-421): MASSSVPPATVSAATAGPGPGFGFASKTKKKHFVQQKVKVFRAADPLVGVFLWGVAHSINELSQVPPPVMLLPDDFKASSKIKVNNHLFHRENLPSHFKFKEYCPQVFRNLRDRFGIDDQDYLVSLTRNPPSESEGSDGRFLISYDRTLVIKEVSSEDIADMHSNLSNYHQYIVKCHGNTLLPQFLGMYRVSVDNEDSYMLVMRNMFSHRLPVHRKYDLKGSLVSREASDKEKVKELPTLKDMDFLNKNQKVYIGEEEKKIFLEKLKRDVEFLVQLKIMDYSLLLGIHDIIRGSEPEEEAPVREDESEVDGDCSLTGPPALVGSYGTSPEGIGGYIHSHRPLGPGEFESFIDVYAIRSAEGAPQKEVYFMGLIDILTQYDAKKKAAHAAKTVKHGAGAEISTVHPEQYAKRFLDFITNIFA
Format: cell-based
Design: untagged in primary human PBMCs and monocyte-derived dendritic cells
In short: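 DC50 derived by Hill fit of luminescence from Nano-Glo HiBiT lytic detection. Cells were HiBiT knock-in MOLT-4 (C-terminal tag on endogenous PIP4K2C), exposed 6 h or 24 h at 37 C to compound, top concentration 10 micromolar, 3-fold steps, 10 points, duplicates.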

| DC50 | SMILES |
| --- | --- |
| < 500 nM | O=C1CCC(Nc2ccc(N3CCN(CC4CCN(C(=O)[C@H]5CC[C@H](Nc6ncc(F)c(-c7cccc(N8CCOCC8=O)c7)n6)CC5)CC4)CC3)c(F)c2)C(=O)N1 (stereo partly drawn) [Compound 553, trans-3-((3-fluoro-4-(4-((1-(4-((5-fluoro-4-(3-(3-oxomorpholino)phenyl)pyrimidin-2-yl)amino)cyclohexane-1-carbonyl)piperidin-4-yl)methyl)piperazin-1-yl)phenyl)amino)piperidine-2,6-dione] |
| < 500 nM | O=C1CCC(Nc2ccc(C3CCN(CC4CCN(C(=O)[C@H]5CC[C@H](Nc6ncc(F)c(-c7cccc(C8CC8)c7)n6)CC5)CC4)CC3)c(F)c2)C(=O)N1 (stereo partly drawn) [Compound 554, trans-3-((4-(1-((1-(4-((4-(3-cyclopropylphenyl)-5-fluoropyrimidin-2-yl)amino)cyclohexane-1-carbonyl)piperidin-4-yl)methyl)piperidin-4-yl)-3-fluorophenyl)amino)piperidine-2,6-dione] |
| < 500 nM | O=C1CCC(Nc2ccc(N3CCN(CC4CCN(C(=O)[C@H]5CC[C@H](Nc6ncc(F)c(-c7cccc(C8CC8)c7)n6)CC5)CC4)CC3)c(F)c2)C(=O)N1 (stereo partly drawn) [Compound 555, trans-3-[4-[4-[[1-[4-[[4-(3-cyclopropylphenyl)-5-fluoro-pyrimidin-2-yl]amino]cyclohexanecarbonyl]-4-piperidyl]methyl]piperazin-1-yl]-3-fluoro-anilino]piperidine-2,6-dione] |
| < 500 nM | O=C1CCC(Nc2ccc(C3CCN([C@H]4CC[C@H](C(=O)N[C@H]5CC[C@H](Nc6ncc(F)c(-c7cccc(N8CCCCC8)c7)n6)CC5)CC4)CC3)c(F)c2)C(=O)N1 (stereo partly drawn) [Compound 556, trans-(1r,4R)-4-(4-(4-((2,6-dioxopiperidin-3-yl)amino)-2-fluorophenyl)piperidin-1-yl)-N-((1r,4R)-4-((5-fluoro-4-(3-(piperidin-1-yl)phenyl)pyrimidin-2-yl)amino)cyclohexyl)cyclohexane-1-carboxamide] |
| < 500 nM | O=C1CCC(Nc2ccc(N3CCN([C@H]4CC[C@H](NC(=O)[C@H]5CC[C@H](Nc6ncc(F)c(-c7cccc(C8CC8)c7)n6)CC5)CC4)CC3)c(F)c2)C(=O)N1 (stereo partly drawn) [Compound 557, trans-(1r,4R)-4-((4-(3-cyclopropylphenyl)-5-fluoropyrimidin-2-yl)amino)-N-((1r,4R)-4-(4-(4-((2,6-dioxopiperidin-3-yl)amino)-2-fluorophenyl)piperazin-1-yl)cyclohexyl)cyclohexane-1-carboxamide] |
| < 500 nM | O=C1CCC(Nc2ccc(C3CCN([C@H]4CC[C@H](C(=O)N[C@H]5CC[C@H](Nc6ncc(F)c(-c7cccc(C8CC8)c7)n6)CC5)CC4)CC3)c(F)c2)C(=O)N1 (stereo partly drawn) [Compound 558, trans-(1r,4R)—N-((1r,4R)-4-((4-(3-cyclopropylphenyl)-5-fluoropyrimidin-2-yl)amino)cyclohexyl)-4-(4-(4-((2,6-dioxopiperidin-3-yl)amino)-2-fluorophenyl)piperidin-1-yl)cyclohexane-1-carboxamide] |
| < 500 nM | O=C1CCC(Nc2ccc(N3CCN([C@H]4CC[C@H](C(=O)N[C@H]5CC[C@H](Nc6ncc(F)c(-c7cccc(C8CC8)c7)n6)CC5)CC4)CC3)c(F)c2)C(=O)N1 (stereo partly drawn) [Compound 559, trans-N-(trans-4-((4-(3-cyclopropylphenyl)-5-fluoropyrimidin-2-yl)amino)cyclohexyl)-4-(4-(4-((2,6-dioxopiperidin-3-yl)amino)-2-fluorophenyl)piperazin-1-yl)cyclohexane-1-carboxamide] |
| < 500 nM | O=C1CCC(Nc2ccc(N3CCN(C[C@H]4CC[C@H](CC(=O)N[C@H]5CC[C@H](Nc6ncc(F)c(-c7cccc(N8CCCCC8=O)c7)n6)CC5)CC4)CC3)c(F)c2)C(=O)N1 (stereo partly drawn) [Compound 560, trans-2-((1r,4R)-4-((4-(4-((2,6-dioxopiperidin-3-yl)amino)-2-fluorophenyl)piperazin-1-yl)methyl)cyclohexyl)-N-((1r,4R)-4-((5-fluoro-4-(3-(2-oxopiperidin-1-yl)phenyl)pyrimidin-2-yl)amino)cyclohexyl)acetamide] |
| < 500 nM | O=C1CCC(Nc2ccc(N3CCN(C[C@H]4CC[C@H](CC(=O)N[C@H]5CC[C@H](Nc6ncc(F)c(-c7cccc(N8CCCOC8=O)c7)n6)CC5)CC4)CC3)c(F)c2)C(=O)N1 (stereo partly drawn) [Compound 561, trans-2-((1r,4R)-4-((4-(4-((2,6-dioxopiperidin-3-yl)amino)-2-fluorophenyl)piperazin-1-yl)methyl)cyclohexyl)-N-((1r,4R)-4-((5-fluoro-4-(3-(2-oxo-1,3-oxazinan-3-yl)phenyl)pyrimidin-2-yl)amino)cyclohexyl)acetamide] |
| < 500 nM | O=C1CCC(Nc2ccc(N3CCN(C[C@H]4CC[C@H](CC(=O)N[C@H]5CC[C@H](Nc6ncc(F)c(-c7cccc(N8CCOCC8=O)c7)n6)CC5)CC4)CC3)c(F)c2)C(=O)N1 (stereo partly drawn) [Compound 562, trans-2-((1r,4R)-4-((4-(4-((2,6-dioxopiperidin-3-yl)amino)-2-fluorophenyl)piperazin-1-yl)methyl)cyclohexyl)-N-((1r,4R)-4-((5-fluoro-4-(3-(3-oxomorpholino)phenyl)pyrimidin-2-yl)amino)cyclohexyl)acetamide] |
| < 500 nM | O=C1CCC(Nc2ccc(C3CCN([C@H]4CC[C@H](NC(=O)[C@H]5CC[C@H](Nc6ncc(F)c(-c7cccc(N8CCCOC8=O)c7)n6)CC5)CC4)CC3)c(F)c2)C(=O)N1 (stereo partly drawn) [Compound 563, trans-N-(trans-4-(4-(4-((2,6-dioxopiperidin-3-yl)amino)-2-fluorophenyl)piperidin-1-yl)cyclohexyl)-4-((5-fluoro-4-(3-(2-oxo-1,3-oxazinan-3-yl)phenyl)pyrimidin-2-yl)amino)cyclohexane-1-carboxamide] |
| < 500 nM | O=C1CCC(Nc2ccc(N3CCN([C@H]4CC[C@H](NC(=O)[C@H]5CC[C@H](Nc6ncc(F)c(-c7cccc(N8CCCCC8=O)c7)n6)CC5)CC4)CC3)c(F)c2)C(=O)N1 (stereo partly drawn) [Compound 564, (1r,4R)—N-((1r,4R)-4-(4-(4-((2,6-dioxopiperidin-3-yl)amino)-2-fluorophenyl)piperazin-1-yl)cyclohexyl)-4-((5-fluoro-4-(3-(2-oxopiperidin-1-yl)phenyl)pyrimidin-2-yl)amino)cyclohexane-1-carboxamide] |
| < 500 nM | O=C1CCC(Nc2ccc(C3CCN([C@H]4CC[C@H](NC(=O)[C@H]5CC[C@H](Nc6ncc(F)c(-c7cccc(N8CCCCC8=O)c7)n6)CC5)CC4)CC3)c(F)c2)C(=O)N1 (stereo partly drawn) [Compound 565, trans-N-(trans-4-(4-(4-((2,6-dioxopiperidin-3-yl)amino)-2-fluorophenyl)piperidin-1-yl)cyclohexyl)-4-((5-fluoro-4-(3-(2-oxopiperidin-1-yl)phenyl)pyrimidin-2-yl)amino)cyclohexane-1-carboxamide] |
| < 500 nM | O=C1CCC(Nc2ccc(C3CCN([C@H]4CC[C@H](C(=O)N[C@H]5CC[C@H](Nc6ncc(F)c(-c7cccc(N8CCCCC8=O)n7)n6)CC5)CC4)CC3)c(F)c2)C(=O)N1 (stereo partly drawn) [Compound 566, trans-(1r,4R)-4-(4-(4-((2,6-dioxopiperidin-3-yl)amino)-2-fluorophenyl)piperidin-1-yl)-N-((1r,4R)-4-((5-fluoro-4-(6-(2-oxopiperidin-1-yl)pyridin-2-yl)pyrimidin-2-yl)amino)cyclohexyl)cyclohexane-1-carboxamide] |
| < 500 nM | O=C1CCC(Nc2ccc(C3CCN([C@H]4CC[C@H](C(=O)N[C@H]5CC[C@H](Nc6ncc(F)c(-c7cccc(-n8ccccc8=O)n7)n6)CC5)CC4)CC3)c(F)c2)C(=O)N1 (stereo partly drawn) [Compound 567, trans-(1r,4R)-4-(4-(4-((2,6-dioxopiperidin-3-yl)amino)-2-fluorophenyl)piperidin-1-yl)-N-((1r,4R)-4-((5-fluoro-4-(2-oxo-2H-[1,2′-bipyridin]-6′-yl)pyrimidin-2-yl)amino)cyclohexyl)cyclohexane-1-carboxamide] |
| < 500 nM | O=C1CCC(Nc2ccc(C3CCN([C@H]4CC[C@H](C(=O)N[C@H]5CC[C@H](Nc6ncc(F)c(-c7cccc(N8CCOCC8=O)c7)n6)CC5)CC4)CC3)c(F)c2)C(=O)N1 (stereo partly drawn) [Compound 568, trans-(1r,4R)-4-(4-(4-((2,6-dioxopiperidin-3-yl)amino)-2-fluorophenyl)piperidin-1-yl)-N-((1r,4R)-4-((5-fluoro-4-(3-(3-oxomorpholino)phenyl)pyrimidin-2-yl)amino)cyclohexyl)cyclohexane-1-carboxamide] |
| < 500 nM | O=C1CCC(Nc2ccc(C3CCN([C@H]4CC[C@H](C(=O)N[C@H]5CC[C@H](Nc6ncc(F)c(-c7ccnc(C8(O)CCC8)c7)n6)CC5)CC4)CC3)c(F)c2)C(=O)N1 (stereo partly drawn) [Compound 569, trans-(1r,4R)-4-(4-(4-((2,6-dioxopiperidin-3-yl)amino)-2-fluorophenyl)piperidin-1-yl)-N-((1r,4R)-4-((5-fluoro-4-(2-(1-hydroxycyclobutyl)pyridin-4-yl)pyrimidin-2-yl)amino)cyclohexyl)cyclohexane-1-carboxamide] |
| < 500 nM | O=C1CCC(Nc2ccc(C3CCN([C@H]4CC[C@H](C(=O)N[C@H]5CC[C@H](Nc6ncc(F)c(-c7ccnc(N8CCOCC8=O)c7)n6)CC5)CC4)CC3)c(F)c2)C(=O)N1 (stereo partly drawn) [Compound 570, trans-(1r,4R)-4-(4-(4-((2,6-dioxopiperidin-3-yl)amino)-2-fluorophenyl)piperidin-1-yl)-N-((1r,4R)-4-((5-fluoro-4-(2-(3-oxomorpholino)pyridin-4-yl)pyrimidin-2-yl)amino)cyclohexyl)cyclohexane-1-carboxamide] |
